Measured values from patent US10857110B2, “Antibacterial compounds” (CONSEJO NACIONAL DE INVESTIGACIONES CIENTÍFICAS Y TÉCNICAS …, priority 2016, dated 2020).
≈ marks a conversion by molar mass, not a printed value.

What was measured:
[1] = system: Burkholderia seminalis (CBC 040); conditions: reference (1); cited from earlier work
B. contaminans (HNBC001) = assay: MIC/MBC antibiotic sensitivity (CLSI); format: cell-based; conditions: Ceftazimide, CLSI criteria
Procedure: (§1) The new compounds of the invention were synthesized following the general method of preparation (Tetrahedron, 2001, 57, 1671-1675), from the reaction between an intermediary compound of the acyl thiourea and HgCl2 in presence of trimethylamine. The products were adequately characterized regarding its chemistry. The antibacterial activity of the new compounds was assayed against two Gram-positive reference strains: Staphylococcus aureus (ATCC6538) and Bacillus cereus (ATCC10876), a fermenting Gram-negative strain: Escherichia coli (ATCC25922), and 26 non-fermenting Gram-negative isolates, including 3 reference strains: Pseudomonas aeruginosa (PAO1), Bordetella bronchiseptica (9.73H+), and Inquilinus limosus (DSM16000), and 23 isolates recovered from patients suffering from cystic fibrosis, including one Achromobacter xylosoxidans isolate, and 22 isolates belonging to the Burkholderia cepacia complex. The later were selected because they presented resistance to a high number of antimicrobial compounds, among a panel of 125 clinical isolates previously analyzed for its resistance against 17 antimicrobial compounds (1,2). The antibiotic sensitivity studies were performed by applying two quantitative methods which allow to determine the minimum inhibitory concentration (MIC) and the minimum bactericidal concentration (MBC).
(§2) The compounds obtained in Examples 1 and 2 were assayed against 23 isolates recovered from the sputum of patients suffering from cystic fibrosis being treated at the Sor Maria Ludovica Children Hospital (La Plata, Buenos Aires, Argentina). Nineteen of these isolates were selected for being highly resistant to most of the antimicrobial agents of clinical use from a panel of 125 isolates previously characterized in Martina et al. (1). Reference strains were also included: Gram (+) bacteria: B. cereus and S. aureus, fermenting Gram (−) bacteria: E. coli, and non-fermenting Gram (−) bacteria: Inquilinus limosus (DSM16000), B. bronchiseptica, and Pseudomonas aeruginosa (PAO1). The antibiotic sensitivity studies were performed applying two quantitative methods which allow to determine the minimum inhibitory concentration (MIC) and the minimum bactericidal concentration (MBC) according to the criteria established by the Clinical and Laboratory Standards Institute (CLSI) (4). For comparative purposes, three antibiotics commonly used in the treatment of pulmonary infections in cystic fibrosis patients were included in the study: tobramycin, ceftazidime and meropenem.

[2] = system: Bacillus cereus (ATCC10876); assay: MIC/MBC antibiotic sensitivity (CLSI); format: cell-based
Procedure: as §1, §2

[3] = system: Bordetella bronchiseptica (9.73H+); assay: MIC/MBC antibiotic sensitivity (CLSI); format: cell-based; conditions: B. bronchiseptica (9.73H+)
Procedure: as §1, §2

[4] = system: Burkholderia cenocepacia (CBC 023); assay: MIC/MBC antibiotic sensitivity (CLSI); format: cell-based; conditions: Ceftazimide, CLSI criteria; B. cenocepacia (CBC 023)
Procedure: as §1, §2

[5] = system: Burkholderia cenocepacia (CBC 024); assay: MIC/MBC antibiotic sensitivity (CLSI); format: cell-based
Procedure: as §1, §2

[6] = system: Burkholderia cenocepacia (CBC 029); assay: MIC/MBC antibiotic sensitivity (CLSI); format: cell-based
Procedure: as §1, §2

[7] = system: Burkholderia cenocepacia (CBC 031); assay: MIC/MBC antibiotic sensitivity (CLSI); format: cell-based
Procedure: as §1, §2

[8] = system: Burkholderia cenocepacia (CBC 032); assay: MIC/MBC antibiotic sensitivity (CLSI); format: cell-based
Procedure: as §1, §2

[9] = system: Burkholderia cenocepacia (CBC 033); assay: MIC/MBC antibiotic sensitivity (CLSI); format: cell-based
Procedure: as §1, §2

[10] = system: Burkholderia cenocepacia (CBC 035); assay: MIC/MBC antibiotic sensitivity (CLSI); format: cell-based
Procedure: as §1, §2

[11] = system: Burkholderia cenocepacia (CBC 036); assay: MIC/MBC antibiotic sensitivity (CLSI); format: cell-based
Procedure: as §1, §2

[12] = system: Burkholderia cenocepacia (HE001); assay: MIC/MBC antibiotic sensitivity (CLSI); format: cell-based; conditions: Ceftazimide, CLSI criteria; B. cenocepacia (HE001)
Procedure: as §1, §2

[13] = system: Burkholderia cepacia (CBC 010); assay: MIC/MBC antibiotic sensitivity (CLSI); format: cell-based; conditions: Ceftazimide, CLSI criteria; B. cepacia (CBC 010)
Procedure: as §1, §2

[14] = system: Burkholderia cepacia (CBC 011); assay: MIC/MBC antibiotic sensitivity (CLSI); format: cell-based; conditions: Ceftazimide, CLSI criteria; B. cepacia (CBC 011)
Procedure: as §1, §2

[15] = system: Burkholderia multivorans (CBC 015); assay: MIC/MBC antibiotic sensitivity (CLSI); format: cell-based
Procedure: as §1, §2

[16] = system: Burkholderia multivorans (CBC 016); assay: MIC/MBC antibiotic sensitivity (CLSI); format: cell-based
Procedure: as §1, §2

[17] = system: Burkholderia multivorans (CBC 018); assay: MIC/MBC antibiotic sensitivity (CLSI); format: cell-based
Procedure: as §1, §2

[18] = system: Burkholderia multivorans (CBC 019); assay: MIC/MBC antibiotic sensitivity (CLSI); format: cell-based; conditions: Ceftazimide, CLSI criteria; B. multivorans (CBC 019)
Procedure: as §1, §2

[19] = system: Burkholderia multivorans (CBC 020); assay: MIC/MBC antibiotic sensitivity (CLSI); format: cell-based; conditions: Ceftazimide, CLSI criteria; B. multivorans (CBC 020)
Procedure: as §1, §2

[20] = system: Burkholderia multivorans (CBC 021); assay: MIC/MBC antibiotic sensitivity (CLSI); format: cell-based; conditions: Ceftazimide, CLSI criteria; B. multivorans (CBC 021)
Procedure: as §1, §2

[21] = system: Burkholderia multivorans (CBC 022); assay: MIC/MBC antibiotic sensitivity (CLSI); format: cell-based; conditions: Ceftazimide, CLSI criteria; B. multivorans (CBC 022)
Procedure: as §1, §2

[22] = system: Burkholderia seminalis (CBC 040); assay: MIC/MBC antibiotic sensitivity (CLSI); format: cell-based; conditions: Ceftazimide, CLSI criteria; B. seminalis (CBC 040)
Procedure: as §1, §2

[23] = system: Burkholderia seminalis (CBC 042); assay: MIC/MBC antibiotic sensitivity (CLSI); format: cell-based; conditions: Ceftazimide, CLSI criteria; B. seminalis (CBC 042)
Procedure: as §1, §2

[24] = system: Escherichia coli (ATCC25922); assay: MIC/MBC antibiotic sensitivity (CLSI); format: cell-based; conditions: E. coli (ATCC25922)
Procedure: as §1, §2

[25] = system: Inquilinus limosus (DSM16000); assay: MIC/MBC antibiotic sensitivity (CLSI); format: cell-based; conditions: Ceftazimide, CLSI criteria
Procedure: as §1, §2

[26] = system: Pseudomonas aeruginosa (PAO1); assay: MIC/MBC antibiotic sensitivity (CLSI); format: cell-based; conditions: P. aeruginosa (PAO1)
Procedure: as §1, §2

[27] = system: Staphylococcus aureus (ATCC6538); assay: MIC/MBC antibiotic sensitivity (CLSI); format: cell-based; conditions: S. aureus (ATCC6538)
Procedure: as §1, §2

B. cenacepacia (FQC2524) = assay: MIC/MBC antibiotic sensitivity (CLSI); format: cell-based, B. cenocepacia; conditions: Ceftazimide, CLSI criteria
Procedure: as §1, §2

[28] = system: Achromobacter xylosaxidans (HNA001); assay: MIC/MBC antibiotic sensitivity (CLSI); format: cell-based, Achromobacter xylosoxidans; conditions: Ceftazimide, CLSI criteria; A. xylosaxidans (HNA001)
Procedure: as §1, §2

CC1(C)S[C@@H]2[C@H](NC(=O)[C@H](N)c3ccccc3)C(=O)N2[C@H]1C(=O)O [ampicillin]
resistance of the strain to commercial antibiotics [1]: resistant

colistin
resistance of the strain to commercial antibiotics [1]: resistant

NCC[C@H](O)C(=O)N[C@@H]1C[C@H](N)[C@@H](O[C@H]2O[C@H](CN)[C@@H](O)[C@H](O)[C@H]2O)[C@H](O)[C@H]1O[C@H]1O[C@H](CO)[C@@H](O)[C@H](N)[C@H]1O [amikacin]
resistance of the strain to commercial antibiotics [1]: resistant

CO/N=C(\C(=O)N[C@@H]1C(=O)N2C(C(=O)O)=C(COC(C)=O)CS[C@H]12)c1csc(N)n1 [cefotaxim]
resistance of the strain to commercial antibiotics [1]: resistant

CCn1cc(C(=O)O)c(=O)c2ccc(C)nc21 [nalidixic acid]
resistance of the strain to commercial antibiotics [1]: resistant

CO/N=C(\C(=O)N[C@@H]1C(=O)N2C(C(=O)[O-])=C(C[N+]3(C)CCCC3)CS[C@H]12)c1csc(N)n1 [cefepime]
resistance of the strain to commercial antibiotics [1]: resistant

CO[C@@]1(NC(=O)Cc2cccs2)C(=O)N2C(C(=O)O)=C(COC(N)=O)CS[C@@H]21 [cefoxitin]
resistance of the strain to commercial antibiotics [1]: resistant

CC(=O)OCC1=C(C(=O)O)N2C(=O)[C@@H](NC(=O)Cc3cccs3)[C@H]2SC1 [cefalotin]
resistance of the strain to commercial antibiotics [1]: resistant

gentamicin
resistance of the strain to commercial antibiotics [1]: resistant

CC(C)(O/N=C(\C(=O)N[C@@H]1C(=O)N2C(C(=O)[O-])=C(C[n+]3ccccc3)CS[C@H]12)c1csc(N)n1)C(=O)O [Ceftazimide, ceftazidime]
MIC (R/I/S category) (B. contaminans (HNBC001)): S (<8 μg/ml S)
MBC [2]: 0.97 µg/mL (≈ 1.77 µM)
MIC [2]: 0.97 µg/mL (≈ 1.77 µM)
MBC [3]: 62.5 µg/mL (≈ 114 µM)
MIC [3]: 7.81 µg/mL (≈ 14.3 µM)
MIC (R/I/S category) [4]: R (>32 μg/ml R)
MBC ([5]; Burkholderia cenocepacia (CBC 024)): 7.81 µg/mL (≈ 14.3 µM)
MIC (R/I/S category) ([5]; Ceftazimide, CLSI criteria, B. cenocepacia (CBC 024)): S (<8 μg/ml S)
MBC ([6]; Burkholderia cenocepacia (CBC 029)): 15.62 µg/mL (≈ 28.6 µM)
MIC (R/I/S category) ([6]; Ceftazimide, CLSI criteria, B. cenocepacia (CBC 029)): S (<8 μg/ml S)
MBC ([7]; Burkholderia cenocepacia (CBC 031)): 7.81 µg/mL (≈ 14.3 µM)
MIC (R/I/S category) ([7]; Ceftazimide, CLSI criteria, B. cenocepacia (CBC 031)): S (<8 μg/ml S)
MBC ([8]; Burkholderia cenocepacia (CBC 032)): 7.81 µg/mL (≈ 14.3 µM)
MIC (R/I/S category) ([8]; Ceftazimide, CLSI criteria, B. cenocepacia (CBC 032)): S (<8 μg/ml S)
MBC ([9]; Burkholderia cenocepacia (CBC 033)): 31.25 µg/mL (≈ 57.2 µM)
MIC (R/I/S category) ([9]; Ceftazimide, CLSI criteria, B. cenocepacia (CBC 033)): S (<8 μg/ml S)
MBC ([10]; Burkholderia cenocepacia (CBC 035)): 15.62 µg/mL (≈ 28.6 µM)
MIC (R/I/S category) ([10]; Ceftazimide, CLSI criteria, B. cenocepacia (CBC 035)): S (<8 μg/ml S)
MBC ([11]; Burkholderia cenocepacia (CBC 036)): 15.62 µg/mL (≈ 28.6 µM)
MIC (R/I/S category) ([11]; Ceftazimide, CLSI criteria, B. cenocepacia (CBC 036)): S (<8 μg/ml S)
MIC (R/I/S category) [12]: R (>32 μg/ml R)
MIC (R/I/S category) [13]: R (>32 μg/ml R)
MIC (R/I/S category) [14]: R (>32 μg/ml R)
MBC ([15]; Burkholderia multivorans (CBC 015)): 7.81 µg/mL (≈ 14.3 µM)
MIC (R/I/S category) ([15]; Ceftazimide, CLSI criteria, B. multivorans (CBC 015)): S (<8 μg/ml S)
MBC ([16]; Burkholderia multivorans (CBC 016)): 3.9 µg/mL (≈ 7.14 µM)
MIC (R/I/S category) ([16]; Ceftazimide, CLSI criteria, B. multivorans (CBC 016)): S (<8 μg/ml S)
MBC ([17]; Burkholderia multivorans (CBC 018)): 7.81 µg/mL (≈ 14.3 µM)
MIC (R/I/S category) ([17]; Ceftazimide, CLSI criteria, B. multivorans (CBC 018)): S (<8 μg/ml S)
MIC (R/I/S category) [18]: R (>32 μg/ml R)
MIC (R/I/S category) [19]: R (>32 μg/ml R)
MIC (R/I/S category) [20]: R (>32 μg/ml R)
MIC (R/I/S category) [21]: R (>32 μg/ml R)
MIC (R/I/S category) [22]: R (>32 μg/ml R)
MIC (R/I/S category) [23]: R (>32 μg/ml R)
MBC [24]: 0.97 µg/mL (≈ 1.77 µM)
MIC [24]: 0.97 µg/mL (≈ 1.77 µM)
MIC (R/I/S category) [25]: R (>32 μg/ml R)
MBC [26]: 1.95 µg/mL (≈ 3.57 µM)
MIC [26]: 1.95 µg/mL (≈ 3.57 µM)
MBC [27]: 7.81 µg/mL (≈ 14.3 µM)
MIC [27]: 7.81 µg/mL (≈ 14.3 µM)
MIC (R/I/S category) (B. cenacepacia (FQC2524)): S (<8 μg/ml S)
MIC (R/I/S category) [28]: S (<8 μg/ml S)
resistance of the strain to commercial antibiotics [1]: resistant

O=C(O)c1cn(C2CC2)c2cc(N3CCNCC3)c(F)cc2c1=O [ciprofloxacin]
resistance of the strain to commercial antibiotics [1]: resistant
